Earlier results in US10632087B2, “Famciclovir and meloxicam combination therapy for functional somatic syndromes” (INNOVATIVE MED CONCEPTS, LLC., priority 2012, dated 2020).

System: fibromyalgia patients
Conditions: valacyclovir alone; not recommended as therapy for fibromyalgia

SMILES: CC(C)[C@H](N)C(=O)OCCOCn1cnc2c(=O)[nH]c(N)nc21 [valacyclovir]
- treatment of fibromyalgia patients: not successful
